From PubChem BioAssay (NCI)
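Exposure lasted 48 hours, with cells grown in 96-well plates and compounds tested at five concentrations. GI50 is the concentration that inhibits growth by half. TGI is the concentration that stops growth completely.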

How the values were obtained:
Assay in all cases: NCI-60 cell line screen, 48 h
SF-295 CNS = test system: SF-295 CNS
HS 578T breast = test system: HS 578T breast
SK-MEL-5 melanoma = test system: SK-MEL-5 melanoma
OVCAR-3 ovarian = test system: OVCAR-3 ovarian
SF-539 CNS = test system: SF-539 CNS
HCT-116 colon = test system: HCT-116 colon
A498 renal = test system: A498 renal
SK-MEL-28 melanoma = test system: SK-MEL-28 melanoma
HOP-92 NSCLC = test system: HOP-92 NSCLC
HOP-62 NSCLC = test system: HOP-62 NSCLC

Compound	GI50 (SF-295 CNS) [µM]	TGI (SF-295 CNS) [µM]	GI50 (HS 578T breast) [µM]	TGI (HS 578T breast) [µM]	GI50 (SK-MEL-5 melanoma) [µM]	TGI (SK-MEL-5 melanoma) [µM]	GI50 (OVCAR-3 ovarian) [µM]	TGI (OVCAR-3 ovarian) [µM]	GI50 (SF-539 CNS) [µM]	TGI (SF-539 CNS) [µM]	GI50 (HCT-116 colon) [µM]	TGI (HCT-116 colon) [µM]	GI50 (A498 renal) [µM]	TGI (A498 renal) [µM]	GI50 (SK-MEL-28 melanoma) [µM]	TGI (SK-MEL-28 melanoma) [µM]	GI50 (HOP-92 NSCLC) [µM]	TGI (HOP-92 NSCLC) [µM]	GI50 (HOP-62 NSCLC) [µM]	TGI (HOP-62 NSCLC) [µM]
COc1cc(-c2nn(-c3ccc(NC(=O)Nc4ccc(Cl)c(Cl)c4)cc3)cc2-c2ccncc2)ccc1Cl	1.82	4.4	3.22	11.9	2.48	8.29	3.02	8.63	2.89	33.6	3.08	11	2	8.27	3.94	17.9	2.35	11.9	3.79	22.3
CCNC(C)(C)C(SS)c1ccc(Br)cc1 (stereo unspecified)		> 100		> 100		> 100		> 100		> 100		> 100		> 100		> 100		> 100		> 100
N#CC(C#N)=Cc1c(-c2ccccc2)[nH]c2ccccc12	1.59	15.5	2.31	8.49	1.08	12.8	1.66	5.29	2.1	9.12	2.21	> 100	2.97	22.4	3.57	> 45.8	5.6	> 100	11.2	55.2
O=C(/C=C1\C(=O)N(Cc2ccc([N+](=O)[O-])cc2)c2ccccc21)c1ccc(OCCN2CCCCC2)cc1	1.78	4.12	1.71	6.09	1.67	3.04	1.25	2.57	1.53	2.89	0.366	1.43	4.09	18	1.53	2.89	1.07	2.37	2.12	6.32
CN(Cc1cnc(N)nc1N)c1ccc(C(=O)O)cc1	> 100	> 100	> 100	> 100	> 100	> 100	> 100	> 100	> 100	> 100	> 100	> 100	4.25	> 100	> 100	> 100	> 100	> 100	> 100	> 100
CC[C@@]1(OC(=O)CN)C(=O)OCc2c1cc1n(c2=O)Cc2cc3cc4c(cc3nc2-1)OCO4	< 0.01	< 0.01	0.399	> 100	< 0.01	0.134	< 0.0239	0.412	< 0.01	< 0.01			< 0.01	0.126	0.209	10.8	< 0.01	0.404	< 0.01	< 0.0495
Cc1csc(/C=N/NC(=O)c2nnn(-c3ccnc4c(C(F)(F)F)cccc34)c2C)c1	34.7	> 100	> 100	> 100	27.2	> 100	90.3	> 100	> 100	> 100	36	> 100	83.1	> 100	> 100	> 100	55.8	> 100	63.5	> 100
COc1cc2ccccc2c2cc([N+](=O)[O-])oc12		15.6		10.1		0.293		5.41		7.75		10.3		0.342		0.695		4.54		32
CCCCN(CCCC)c1ccc(C(=N)c2ccc(N(C)C)cc2)cc1	0.349	1.34	1.18	3.28	0.505	1.7	0.448	1.6	1.53	3.16	0.307	1.22	0.178	1.8	1.31	2.6	0.362	1.78	1.33	2.69
O=[N+]([O-])c1cc([N+](=O)[O-])c(Cl)c(Cl)c1Cl	8.15	23.1	2.26	5.31	1.75	3.35	1.18	2.4			0.24	0.743	5.2	17.9	1.67	3.06	1.68	3.15	1.67	3.05
CN1CCN(CCCOc2cccc3nc(Nc4ccc(Cl)c(F)c4)ccc23)CC1	1.79	3.46	2.12	5.77	1.78	3.17	1.7	3.29	1.53	3.04	1.56	3.03	2.39	8.28	1.72	3.21	1.33	5.27	1.45	3.26
O=C(/C=C/c1ccccc1)c1c[nH]c2ccccc2c1=O	2.31	7.18	2.32	6.34	4.8	17	2.03	4.37	2.55	8.81	3.11	12.1	2.3	10.3	6.53	19.4	3.9	13	3.5	12.2
COc1cc(/C=N/Nc2ncnc3c2cnn3C(C)C)ccc1O	9.41	> 25	5.04	24.8	8.1	> 25	8.47	> 25	4.76	15.2	8.02	> 25	8.58	24.8	8.08	> 25	0.357	4.99	6.5	> 25
